Experimental data: patent publication US5686486A, “4-hydroxy-benzopyran-2-ones and 4-hydroxy-cycloalkyl[b]pyran-2-ones useful to treat retroviral infections” (priority 1995, dated 1997)
pKi: −log10 of the molar value. Values joined by “and” are separate entries in the source; they are usually repeats but may differ in a detail not shown here. Equal values may be shown once.

Assays:
[1] = target: T1, HIV-1 protease (Human immunodeficiency virus type 1 group M subtype B, UniProt P04585); test: biochemical; conditions: read-out: HIV-1 FITC KI
Outline: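 Ki from two-fold serial inhibitor dilutions (24–48 concentrations) with 40 nM HIV-1 protease stock and 200 μM substrate stock, 90 min at room temperature; stopped with avidin beads. Reference inhibitor run in parallel; Ki by nonlinear least-squares fit.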

[2] = target: T1, HIV-1 protease; test: biochemical; conditions: for inhibition at 0.123 µM: read-out: HIV-1 Protease % Inhib, dose 0.123 uM; for inhibition at 0.37 µM: read-out: HIV-1 Protease % Inhib, dose 0.370 uM; for inhibition at 1.1 µM: read-out: HIV-1 Protease % Inhib, dose 1.100 uM; for inhibition at 3.3 µM: read-out: HIV-1 Protease % Inhib, dose 3.300 uM; for inhibition at 10 µM: read-out: HIV-1 Protease % Inhib, dose 10.000 uM; for inhibition at 30 µM: read-out: HIV-1 Protease % Inhib, dose 30.000 uM
Outline: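 Biotinylated, FITC-labeled peptide substrate (20 μl of 0.2 μM) incubated with HIV-1 protease (10 μl of 0.1 μM) and compound in 0.1 M sodium acetate pH 5.5, 1.0 M NaCl, 0.05% NP-40, 1 h, room temperature, dark. Streptavidin beads then capture uncleaved substrate; filtered labeled product read by fluorescence, giving percent inhibition.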

Work on `O=c1oc2c(c(O)c1C(c1cccc(NS(=O)(=O)c3ccc(S(=O)(=O)c4ccccc4)s3)c1)C1CC1)CCCCCC2` (centres unmarked) [Example 299, N-[3-[Cyclopropyl(5,6,7,8,9,10-hexahydro-4-hydroxy-2-oxo-2H-cycloocta[b]pyran-3-yl)methyl]phenyl]-5-(phenylsulfonyl)-2-thiophenesulfonamide] yielded a pKi [1] of 8.64, an inhibition at 0.123 µM [2] of 78.5% and an inhibition at 0.37 µM [2] of 97.8%. The inhibition at 1.1 µM [2] was 97.5%, the inhibition at 3.3 µM [2] was 91.7% and the inhibition at 10 µM [2] was 104%. The inhibition at 30 µM [2] was 98.4%.
`O=c1oc2c(c(O)c1C(c1cccc(NS(=O)(=O)c3ccc(Cl)s3)c1)C1CC1)CCCCCC2` (centres unmarked) [Example 301, 5-Chloro-N-[3-[cyclopropyl(5,6,7,8,9,10-hexahydro-4-hydroxy-2-oxo-2H-cycloocta[b]pyran-3-yl)methyl]phenyl]-2-thiophenesulfonamide] gave a pKi [1] of 8.32, an inhibition at 0.123 µM [2] of 74.7% and an inhibition at 0.37 µM [2] of 91.2%. The inhibition at 1.1 µM [2] was 102%, the inhibition at 3.3 µM [2] was 100% and the inhibition at 10 µM [2] was 104%. It also gave an inhibition at 30 µM [2] of 114%.
Compound `O=c1oc2c(c(O)c1C(c1cccc(NS(=O)(=O)c3cc(Cl)c(Cl)s3)c1)C1CC1)CCCCCC2` (centres unmarked) [Example 302, 4,5-Dichloro-N-[3-[cyclopropyl(5,6,7,8,9,10-hexahydro-4-hydroxy-2-oxo-2H-cycloocta[b]pyran-3-yl)methyl]phenyl]-2-thiophenesulfonamide] has a pKi [1] of 8.57, an inhibition at 0.123 µM [2] of 78.6% and an inhibition at 0.37 µM [2] of 97.8%. The inhibition at 1.1 µM [2] was 105%, the inhibition at 3.3 µM [2] was 113% and the inhibition at 10 µM [2] was 115%. The inhibition at 30 µM [2] was 112%.
`O=c1oc2c(c(O)c1C(c1cccc(NS(=O)(=O)c3cc(Br)c(Br)s3)c1)C1CC1)CCCCCC2` (centres unmarked) [Example 303, 4,5-Dibromo-N-[3-[cyclopropyl(5,6,7,8,9,10-hexahydro-4-hydroxy-2-oxo-2H-cycloocta[b]pyran-3-yl)methyl]phenyl]-2-thiophenesulfonamide] was tested, and the pKi [1] was 8.30, the inhibition at 0.123 µM [2] was 67.4% and the inhibition at 0.37 µM [2] was 96.5%. It also gave an inhibition at 1.1 µM [2] of 97.7%, an inhibition at 3.3 µM [2] of 109% and an inhibition at 10 µM [2] of 110%. It also gave an inhibition at 30 µM [2] of 98%.
`O=c1oc2c(c(O)c1C(c1cccc(NS(=O)(=O)c3cc(Cl)sc3Cl)c1)C1CC1)CCCCCC2` (centres unmarked) [Example 304, 2,5-Dichloro-N-[3-[cyclopropyl(5,6,7,8,9,10-hexahydro-4-hydroxy-2-oxo-2H-cycloocta[b]pyran-3-yl)methyl]phenyl]-3-thiophenesulfonamide] was tested, and the pKi [1] was 7.55, the inhibition at 0.123 µM [2] was 25.7% and the inhibition at 0.37 µM [2] was 60.2%. It also gave an inhibition at 1.1 µM [2] of 85.9%, an inhibition at 3.3 µM [2] of 97.8% and an inhibition at 10 µM [2] of 104%. The inhibition at 30 µM [2] was 95.6%.
For `CC(=O)Nc1ccc(S(=O)(=O)Nc2cccc(C(c3c(O)c4c(oc3=O)CCCCCC4)C3CC3)c2)cc1` (centres unmarked) [Example 307, N-[4-[[[3-[Cyclopropyl(5,6,7,8,9,10-hexahydro-4-hydroxy-2-oxo-2H-cycloocta[b]pyran-3-yl)methyl]phenyl]amino]sulfonyl]phenyl]-acetamide], the pKi [1] was 8.12, the inhibition at 0.123 µM [2] was 19.5% and the inhibition at 0.37 µM [2] was 66.5%. For the same compound, the inhibition at 1.1 µM [2] was 85.2%, the inhibition at 3.3 µM [2] was 97.8% and the inhibition at 10 µM [2] was 105%. It also gave an inhibition at 30 µM [2] of 90.3%.
With `O=c1oc2c(c(O)c1C(c1cccc(NS(=O)(=O)c3ccc(N=Nc4ccccc4)cc3)c1)C1CC1)CCCCCC2` (centres unmarked) [Example 308, N-[3-[Cyclopropyl(5,6,7,8,9,10-hexahydro-4-hydroxy-2-oxo-2H-cycloocta[b]pyran-3-yl)methyl]phenyl]4-(phenylazo)-benzenesulfonamide] the pKi [1] was 8.51, the inhibition at 0.123 µM [2] was 46.5% and the inhibition at 0.37 µM [2] was 70.4%. The inhibition at 1.1 µM [2] was 82.3%, the inhibition at 3.3 µM [2] was 91.3% and the inhibition at 10 µM [2] was 96.9%. The inhibition at 30 µM [2] was 86.8%.
`CN(C)c1ccc(N=Nc2ccc(S(=O)(=O)Nc3cccc(C(c4c(O)c5c(oc4=O)CCCCCC5)C4CC4)c3)cc2)cc1` (centres unmarked) [Example 309, N-[3-[Cyclopropyl(5,6,7,8,9,10-hexahydro-4-hydroxy-2-oxo-2H-cycloocta[b]pyran-3-yl)methyl]phenyl]-4-[[4-(dimethylamino)phenyl]azo]-benzenesulfonamide] gave a pKi [1] of 8.24, an inhibition at 0.123 µM [2] of 46.6% and an inhibition at 0.37 µM [2] of 67.5%. It also gave an inhibition at 1.1 µM [2] of 82.5%, an inhibition at 3.3 µM [2] of 76.5% and an inhibition at 10 µM [2] of 43.7%. It also gave an inhibition at 30 µM [2] of 19.2%.
`O=c1oc2c(c(O)c1C(c1cccc(NS(=O)(=O)c3ccc(-c4ccccn4)s3)c1)C1CC1)CCCCCC2` (centres unmarked) [Example 310, N-[3-[Cyclopropyl(5,6,7,8,9,10-hexahydro4-hydroxy-2-oxo-2H-cycloocta[b]pyran-3-yl)methyl]phenyl]-5-(2-pyridinyl)-2-thiophenesulfonamide] was tested, and the pKi [1] was 8.63, the inhibition at 0.123 µM [2] was 46.2% and the inhibition at 0.37 µM [2] was 86.2%. It also gave an inhibition at 1.1 µM [2] of 94.9%, an inhibition at 3.3 µM [2] of 99% and an inhibition at 10 µM [2] of 103%. For the same compound, the inhibition at 30 µM [2] was 102%.
With `Cc1c(Cl)cccc1S(=O)(=O)Nc1cccc(C(c2c(O)c3c(oc2=O)CCCCCC3)C2CC2)c1` (centres unmarked) [Example 311, 3-Chloro-N-[3-[cyclopropyl(5,6,7,8,9,10-hexahydro-4-hydroxy-2-oxo-2H-cycloocta[b]pyran-3-yl)methyl]phenyl]-2-methyl-benzenesulfonamide] the pKi [1] was 8.20, the inhibition at 0.123 µM [2] was 20.8% and the inhibition at 0.37 µM [2] was 71.2%. It also gave an inhibition at 1.1 µM [2] of 86.4%, an inhibition at 3.3 µM [2] of 92% and an inhibition at 10 µM [2] of 99.5%. It also gave an inhibition at 30 µM [2] of 99.5%.
Work on `O=c1oc2c(c(O)c1C(c1cccc(NS(=O)(=O)c3ccc(OC(F)(F)F)cc3)c1)C1CC1)CCCCCC2` (centres unmarked) [Example 312, N-[3-[Cyclopropyl(5,6,7,8,9,10-hexahydro-4-hydroxy-2-oxo-2-cycloocta[b]pyran-3-yl)methyl]phenyl]-4-(trifluoromethoxy)-benzenesulfonamide] yielded a pKi [1] of 8.40, an inhibition at 0.123 µM [2] of 48.2% and an inhibition at 0.37 µM [2] of 83.6%. For the same compound, the inhibition at 1.1 µM [2] was 89.7%, the inhibition at 3.3 µM [2] was 106% and the inhibition at 10 µM [2] was 114%. For the same compound, the inhibition at 30 µM [2] was 110%.
Work on `O=c1oc2c(c(O)c1C(c1cccc(NS(=O)(=O)c3cccc(NS(=O)(=O)CCCCl)c3)c1)C1CC1)CCCCCC2` (centres unmarked) [Example 313] yielded a pKi [1] of 8.93, an inhibition at 0.123 µM [2] of 104% and an inhibition at 0.37 µM [2] of 96.5%. The inhibition at 1.1 µM [2] was 101%, the inhibition at 3.3 µM [2] was 100% and the inhibition at 10 µM [2] was 106%. It also gave an inhibition at 30 µM [2] of 102%.
`O=c1oc2c(c(O)c1C(c1cccc(NS(=O)(=O)c3cccnc3)c1)C1CC1)CCCCCC2` (centres unmarked) [Example 314, N-[3-[Cyclopropyl(5,6,7,8,9,10-hexahydro-4-hydroxy-2-oxo-2H-cylcloocta[b]pyran-3-yl)methyl]phenyl]-3-pyridinesulfonamide] was tested, and the pKi [1] was 8.64 and 8.70, the inhibition at 0.123 µM [2] was 79.5% and the inhibition at 0.37 µM [2] was 97.7%. It also gave an inhibition at 1.1 µM [2] of 108%, an inhibition at 3.3 µM [2] of 109% and an inhibition at 10 µM [2] of 102%. The inhibition at 30 µM [2] was 97.1%.
For `Cc1cncc(S(=O)(=O)Nc2cccc(C(c3c(O)c4c(oc3=O)CCCCCC4)C3CC3)c2)c1` (centres unmarked) [Example 315, N-[3-[Cyclopropyl(5,6,7,8,9,10-hexahydro4-hydroxy-2-oxo-2H-cycloocta[b]pyran-3-yl)methyl]phenyl]-5-methyl-3-pyridinesulfonamide], the pKi [1] was 8.59, the inhibition at 0.123 µM [2] was 80.7% and the inhibition at 0.37 µM [2] was 94.7%. It also gave an inhibition at 1.1 µM [2] of 91.9%, an inhibition at 3.3 µM [2] of 95.2% and an inhibition at 10 µM [2] of 86.7%. The inhibition at 30 µM [2] was 81.4%.
For `C=CS(=O)(=O)Nc1cccc(C(c2c(O)c3c(oc2=O)CCCCCC3)C2CC2)c1` (centres unmarked) [Example 316, N-[3-[Cycloproopyl(5,6,7,8,9,10-hexahydro4-hydroxy-2-oxo-2H-cycloocta[b]pyran-3-yl)methyl]phenyl]-ethenesulfonamide], the pKi [1] was 7.74, the inhibition at 0.37 µM [2] was 31.2% and the inhibition at 1.1 µM [2] was 77.8%. It also gave an inhibition at 3.3 µM [2] of 98.1%, an inhibition at 10 µM [2] of 103% and an inhibition at 30 µM [2] of 111%.
`CCS(=O)(=O)Nc1cccc(C(c2c(O)c3c(oc2=O)CCCCCC3)C2CC2)c1` (centres unmarked) [Example 318, N-[3-[Cyclopropyl(5,6,7,8,9,10-hexahydro-4-hydroxy-2-oxo-2H-cycloocta[b]pyran-3-yl)methyl]phenyl]-ethanesulfonamide] gave a pKi [1] of 8.00, an inhibition at 0.123 µM [2] of 28.3% and an inhibition at 0.37 µM [2] of 45.1%. The inhibition at 1.1 µM [2] was 84.2%, the inhibition at 3.3 µM [2] was 99.7% and the inhibition at 10 µM [2] was 97.5%. For the same compound, the inhibition at 30 µM [2] was 106%.
For `O=c1oc2c(c(O)c1C(c1cccc(NS(=O)(=O)c3ccccc3)c1)C1CC1)CCCCCC2` (centres unmarked) [Example 319, N-[3-[Cyclopropyl(5,6,7,8,9,10-hexahydro-4-hydroxy-2-oxo-2H-cycloocta[b]pyran-3-yl)methyl]phenyl]-benzenesulfonamide], the pKi [1] was 8.37 and 8.48 and 8.68, the inhibition at 0.123 µM [2] was 67% and the inhibition at 0.37 µM [2] was 84.2%. The inhibition at 1.1 µM [2] was 93.1%, the inhibition at 3.3 µM [2] was 94.3% and the inhibition at 10 µM [2] was 102%. For the same compound, the inhibition at 30 µM [2] was 101%.
For `O=c1oc2c(c(O)c1C(c1cccc(NS(=O)(=O)C=Cc3ccccc3)c1)C1CC1)CCCCCC2` (centres unmarked) [Example 320, N-[3-[Cyclopropyl(5,6,7,8,9,10-hexahydro-4-hydroxy-2-oxo-2H-cycloocta[b]pyran-3-yl)methyl]phenyl]-2-phenyl-ethenesulfonamide], the pKi [1] was 8.42 and 8.68, the inhibition at 0.123 µM [2] was 66.4% and the inhibition at 0.37 µM [2] was 78.5%. It also gave an inhibition at 1.1 µM [2] of 98.2%, an inhibition at 3.3 µM [2] of 102% and an inhibition at 10 µM [2] of 99.3%. The inhibition at 30 µM [2] was 99%.
